Among the data in US20250163168A1, “NOVEL ANTIBODIES AND ANTIBODY CONJUGATES FOR THE TREATMENT OF METABOLIC DISORDERS” (PFIZER INC., priority 2023, published 2025) are Emax values, retold here.

Square brackets hold non-standard residues; d marks the D form. Ends that are not written are not given here. * marks the point of attachment. Aib = CC(C)(N)C(=O)O; BrAc = O=C(CBr)*

T1 sequence (P43220 24-463): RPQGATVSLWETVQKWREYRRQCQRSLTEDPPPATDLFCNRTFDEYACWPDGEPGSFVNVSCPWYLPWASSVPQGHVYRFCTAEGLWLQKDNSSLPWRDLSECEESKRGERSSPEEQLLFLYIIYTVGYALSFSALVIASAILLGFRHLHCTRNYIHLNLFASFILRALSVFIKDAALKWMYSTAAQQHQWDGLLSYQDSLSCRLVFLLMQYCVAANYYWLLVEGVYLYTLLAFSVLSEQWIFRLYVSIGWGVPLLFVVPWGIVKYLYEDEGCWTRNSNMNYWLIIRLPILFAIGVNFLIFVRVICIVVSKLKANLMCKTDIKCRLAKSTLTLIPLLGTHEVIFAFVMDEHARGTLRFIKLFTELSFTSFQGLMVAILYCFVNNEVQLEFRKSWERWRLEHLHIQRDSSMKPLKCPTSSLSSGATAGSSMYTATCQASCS

The assay addresses T1, human GLP1R (Homo sapiens, UniProt P43220).
T1 construct: expressed in transfected cells; host or cells: CHO
As to the kind of experiment: GLP1R agonist cAMP assay in CHO cells stably expressing human GLP1R. Type of assay: cell-based. The settings on record: relative to maximal effect of human GLP-1, read-out: GLP1R agonist mode Emax (%). The method, then:
cAMP assay: The in vitro agonist potency of the peptides disclosed herein was evaluated using a cell-based assay measuring cAMP production. CHO cells stably expressing human GLP1R, or both human GIPR and GLP1R, were incubated with increasing concentrations of agonists for 30 minutes at 37° C. Cells were lysed and cAMP was detected using a homogenous time resolved fluorescence detection kit, as described by the manufacturer (Revvity). […] The EC50 and maximum effect (Emax) values were then determined from the normalized effects and agonist concentrations using a four-parameter logistic equation (GraphPad Prism).
(In general: Changes in cAMP serve as a functional read-out for many G protein-coupled receptors.)
As usually defined, the Emax is the greatest response seen or fitted, relative to the assay's reference. `CC[C@H](C)[C@H](NC(=O)[C@H](Cc1ccccc1)NC(=O)[C@H](CCC(=O)O)NC(=O)[C@H](CCCCN)NC(=O)[C@H](C)NC(=O)[C@H](C)NC(=O)[C@H](CCC(N)=O)NC(=O)[C@H](CCC(=O)O)NC(=O)[C@H](CCC(=O)O)NC(=O)[C@H](CC(C)C)NC(=O)[C@H](Cc1ccc(O)cc1)NC(=O)[C@H](CO)NC(=O)[C@H](CO)NC(=O)[C@H](Cc1ccc(O)cc1)NC(=O)[C@H](CC(=O)O)NC(=O)[C@H](CO)NC(=O)[C@@H](NC(=O)[C@H](Cc1ccccc1)NC(=O)[C@@H](NC(=O)CNC(=O)[C@H](CCC(=O)O)NC(=O)C(C)(C)NC(=O)[C@@H](N)Cc1c[nH]cn1)[C@@H](C)O)[C@@H](C)O)C(=O)N[C@@H](C)C(=O)N[C@@H](Cc1c[nH]c2ccccc12)C(=O)N[C@@H](CC(C)C)C(=O)N[C@H](C(=O)N[C@@H](CCCCN)C(=O)NCC(=O)NCC(=O)NCC(=O)NCC(=O)NCC(=O)NCC(=O)NCC(=O)N[C@@H](CO)C(=O)NCC(=O)NCC(=O)NCC(=O)NCC(=O)N[C@@H](CO)C(=O)NCC(=O)NCC(=O)NCC(=O)NCC(=O)N[C@@H](CO)C(=O)N[C@@H](CCCCNC(=O)CBr)C(N)=O)C(C)C` [compound 154]: the Emax was 122%.
The value for “H[Aib]EGTFTSDVSSYLEEQAAKEFIAWLVKGGGGGGGSGGGGSGGGGSK(BrAc)-NH2 (C-terminus assumed) [compound 153]” was 109%; that for “H[Aib]EGTFTSDYSSYLEEQAAKEFIAWLVKGRGGGGGSGGGGSGGGGSK(BrAc)-NH2 (C-terminus assumed) [compound 151]” was 109%; that for “H[Aib]EGTFTSDYSSYLE[Aib]QAAKEFIAWLVKGRGGGGGSGGGGSGGGGSK(BrAc)-NH2 (C-terminus assumed) [compound 152]” was 107%.
